Literature values as cited in paper PMC4955970, “Stable, synthetic analogs of diadenosine tetraphosphate inhibit rat and human P2X3 receptors and inflammatory pain” (Molecular Pain, 2016).

Test system: P2X3R
Parameters: method as in PMID 11821019
Settings: EC50 and IC50 values taken from literature ref 41; cited from earlier work

Q: Which EC50/IC50 index does the source give for `Nc1ncnc2c1ncn2[C@@H]1O[C@H](COP(=O)(O)OP(=O)(O)OP(=O)(O)O)[C@@H](O)[C@H]1O` [ATP] here?
A: 15.13

Q: For `Nc1ncnc2c1ncn2[C@@H]1O[C@H](COP(=O)(O)OP(=O)(O)OP(=O)(O)OP(=O)(O)OC[C@H]2O[C@@H](n3cnc4c(N)ncnc43)[C@H](O)[C@@H]2O)[C@@H](O)[C@H]1O` [Ap4A, P^1,P^4-diadenosine tetraphosphate], which EC50/IC50 index is on record?
A: 11.48
